From patent US20050148633A1 (priority 2003, published 2005)
pIC50: −log10 of the molar value.

test system: RBL cells; experiment: Inhibition of degranulation in RBL cells; assay type: cell-based; conditions: Rattus norvegicus, anti-DNP IgE / anti-IgE, read-out: concentration at which 50% of degranulation is inhibited
Protocol: Procedure: • The day before the assay was performed, RBL cells, that had been grown to confluence in a 96 well plate, were incubated at 37° C. for at least 2 hours. The medium was replaced in each well with 100 μL of fresh medium containing of anti-DNP IgE.
On the following day, the cells were washed once with PRS (2.6 mM glucose and 0.1% BSA) and 160 μL of PRS was added to each well. The test compound was addded to a well in a 20 μL solution at 10× of the desired concentration and incubated for 20 to 40 minutes at 37° C. 20 μL of 10× mouse anti-IgE (10 μL/mL). Maximum degranulation occurred between 15 to 40 minutes after addition of anti-IgE.

Row | Compound | pIC50
1 | COc1ccc(CCCOC(Cn2ccnc2)c2ccc(OC)cc2)cc1 (centres unmarked) [SKF96365, reference compound] | < 4.70

test system: IL-2 production; experiment: Inhibition of IL-2 production in PHA-activated Jurkat cells (ELISA); assay type: cell-based; conditions: Homo sapiens, PHA 2.5 μg/mL, 20 hours, value bins
Protocol: Jurkat cells were placed in a 96 well plate (0.5 million cells per well in 1% FBS medium) then test compounds of this invention were added at different concentrations. After 10 minutes, the cells were activated with PHA (final concentration 2.5 μg/mL) and incubated for 20 hours at 37° C. under CO2. The final volume was 200 μL. Following incubation, the cells were centrifuged and the supernatants collected and stored at −70° C. prior to assaying for IL-2 production. A commercial ELISA kit (IL-2 Eli-pair, Diaclone Research, Besancon, France) was used to detect production of IL-2, from which dose response curves were obtained. The IC50 value was calculated as the concentration at which 50% of maximum IL-2 production after stimulation was inhibited versus a non-stimulation control.

Row | Compound | pIC50
2 | Fc1cccc(F)c1CNc1ccc(-c2cc(C(F)(F)F)ccc2C(F)(F)F)cc1 [Compound 127, N-(2′,5′-bis-trifluoromethyl-biphenyl-4-yl)-2,6-difluoro-benzyl amine] | > 7.00
3 | O=C(Nc1ccc(-c2c(C(F)(F)F)cc3ccccn23)cc1)c1cc(F)ccc1F [Compound 90, 2,5-Difluoro-N-[4-(2-trifluoromethyl-indolizin-3-yl)-phenyl]-benzamide] | 6.30 to 7.00
4 | CCc1ccc(CC)c(-c2ccc(NC(=O)c3ccncc3C)cc2)c1 [Compound 79, 3-methyl-pyridine-4-carboxylic acid (2′,5′-diethylbiphenyl-4-yl)-amide] | > 7.00
5 | O=C(Nc1ccc(-n2c(C(F)(F)F)nnc2C(F)(F)F)cc1)c1cccc(F)c1F [Compound 32, N-[4-(3,5-Bis-trifluoromethyl-[1,2,4]triazol-4-yl)-phenyl]-2,3-difluoro-benzamide] | 6.30 to 7.00
6 | COc1cccc(C(=O)Nc2ccc(-c3cc(C(F)(F)F)ccc3C(F)(F)F)cc2)c1C [Compound 56, N-(2′,5′-bis-trifluoromethyl-biphenyl-4-yl)-2-methyl-3-methoxybenzamide] | > 7.00
7 | Cc1c(F)cccc1C(=O)Nc1ccc(-c2cc(C(F)(F)F)ccc2C(F)(F)F)cc1 [Compound 55, N-(2′,5′-bis-trifluoromethyl-biphenyl-4-yl)-2-methyl-3-fluorobenzamide] | > 7.00
8 | COc1ccc(Cl)cc1-c1ccc(NC(=O)c2cccc(F)c2F)cc1 [Compound 44, N-(2′-methoxy-5′-chloro-biphenyl-4-yl)-2,3-difluoro-benzamide] | > 7.00
9 | Cc1c(Cl)cccc1C(=O)Nc1ccc(-c2cc(C(F)(F)F)ccc2C(F)(F)F)cc1 [Compound 54, N-(2′,5′-bis-trifluoromethyl-biphenyl-4-yl)-2-methyl-3-chlorobenzamide] | > 7.00
10 | CCc1ccccc1-c1ccc(NC(=O)c2ccncc2C)cc1 [Compound 76, 3-methyl-pyridine-4-carboxylic acid (2′-ethyl-biphenyl-4-yl)-amide] | > 7.00
11 | O=C(Nc1ccc(-c2c(C(F)(F)F)cc3ccccn23)cc1)c1cccc(F)c1F [Compound 21, 2,3-Difluoro-N-[4-(2-trifluoromethyl-indolizin-3-yl)-phenyl]-benzamide] | > 7.00
12 | CCN(CC)C(=O)Nc1ccc(-c2cc(C(F)(F)F)ccc2C(F)(F)F)cc1 [Compound 131, N′,N′-diethyl-N-(2′,5′-bis-trifluoromethylbiphenyl-4-yl) urea] | > 7.00
13 | N#Cc1cc(C(F)(F)F)cnc1-c1ccc(NC(=O)c2cccc(F)c2F)cc1 [Compound 37, N-[4-(3-cyano-5-trifluoromethyl-pyrid-2-yl)-phenyl]-2,3-difluoro-benzamide] | 6.30 to 7.00
14 | Cc1oncc1C(=O)Nc1ccc(-c2cc(C(F)(F)F)ccc2C(F)(F)F)cc1 [Compound 51, 5-methylisoxazole-4-carboxylic acid (2′,5′-bis-trifluoromethyl-biphenyl-4-yl)-amide] | 6.30 to 7.00
15 | COc1ccc(Cl)cc1-c1ccc(NC(=O)c2ccncc2C)cc1 [Compound 65, 3-methyl-pyridine-4-carboxylic acid (2′-methoxy-5′-chlorobiphenyl-4-yl)-amide] | > 7.00
16 | Cc1ccsc1C(=O)Nc1ccc(-n2c(C(F)(F)F)nnc2C(F)(F)F)cc1 [Compound 34, 3-Methyl-thiophene-2-carboxylic acid-(4-(3,5-bis-trifluoromethyl-[1,2,4]triazol-4-yl)-phenyl)-amide] | 6.30 to 7.00
17 | COc1ccc(C)cc1-c1ccc(NC(=O)c2ccncc2C)cc1 [Compound 69, 3-methyl-pyridine-4-carboxylic acid (2′-methoxy-5′-methylbiphenyl-4-yl)-amide] | > 7.00
18 | Cc1ccc(C)c(-c2ccc(NC(=O)c3c(F)cccc3F)cc2)c1 [Compound 87, N-(2′,5′-dimethylbiphenyl-4-yl)-2,6-difluorobenzamide] | > 7.00
19 | Cc1ccc(C(F)(F)F)c(-c2ccc(NC(=O)c3c(F)cccc3F)cc2)c1 [Compound 126, N-(2′-trifluoromethyl-5′-methyl-biphenyl-4-yl)-2,6-difluoro-benzamide] | > 7.00

Results, then the molecule that gave them:

Row | pIC50 | Compound
20 | 6.30 to 7.00 | Cc1ncccc1C(=O)Nc1ccc(-c2cc(C(F)(F)F)ccc2C(F)(F)F)cc1 [Compound 60, 2-methyl-pyridine-3-carboxylic acid (2′,5′-bis-trifluoromethyl-biphenyl-4-yl)-amide]
21 | > 7.00 | Cc1noc(C)c1C(=O)Nc1ccc(-c2cc(C(F)(F)F)ccc2C(F)(F)F)cc1 [Compound 43, 3,5-dimethylisoxazole-4-carboxylic acid (2′,5′-bis-trifluoromethyl-biphenyl-4-yl)-amide]
22 | > 7.00 | O=C(Nc1ccc(-c2cc(Cl)ccc2Cl)cc1)c1c(F)cccc1F [Compound 88, N-(2′,5′-dichlorobiphenyl-4-yl)-2,6-difluorobenzamide]
23 | > 7.00 | COc1ccc(Cl)cc1-c1ccc(NC(=O)c2ccncc2F)cc1 [Compound 67, 3-fluoro-pyridine-4-carboxylic acid (2′-methoxy-5′-chlorobiphenyl-4-yl)-amide]
24 | > 7.00 | Cc1cccc(C(=O)Nc2ccc(-c3cc(C(F)(F)F)ccc3C(F)(F)F)cc2)c1C [Compound 53, N-(2′,5′-bis-trifluoromethyl-biphenyl-4-yl)-2,3-dimethylbenzamide]
25 | 6.30 to 7.00 | Cc1cc(C(=O)Nc2ccc(-c3cc(C(F)(F)F)ccc3C(F)(F)F)cc2)n(C)n1 [Compound 40, 1,3-Dimethyl-1H-pyrazol-5-carboxylic acid (2′,5′-bis-trifluoromethyl-biphenyl-4-yl)-amide]
26 | 6.30 to 7.00 | O=C(Nc1ccc(-c2ccccc2C(F)(F)F)cc1)c1ccncc1 [Compound 8, N-(2′-Trifluoromethyl-biphenyl-4-yl)-isonicotinamide]
27 | > 7.00 | CCOc1ccc(Cl)cc1-c1ccc(NC(=O)c2ccncc2C)cc1 [Compound 82, 3-methyl-pyridine-4-carboxylic acid (2′-ethoxy-5′-chlorobiphenyl-4-yl)-amide]
28 | 6.30 to 7.00 | O=C(Nc1ccc(-c2c(F)cccc2C(F)(F)F)cc1)c1cccc(F)c1F [Compound 22, 2,3-Difluoro-N-(2′-fluoro-6′-trifluoromethyl-biphenyl-4-yl)-benzamide]
29 | 6.30 to 7.00 | COc1ccc(N(C)C)c(-c2ccc(NC(=O)c3ccncc3C)cc2)c1 [Compound 80, 3-methyl-pyridine-4-carboxylic acid {2′-(N,N-dimethylamino)-5′-methoxybiphenyl-4-yl}-amide]
30 | > 7.00 | COc1ccc(OC)c(-c2ccc(NC(=O)c3c(F)cccc3F)cc2)c1 [Compound 125, N-(2′,5′-dimethoxy-biphenyl-4-yl)-2,6-difluoro-benzamide]
31 | > 7.00 | COc1ccc(OC)c(-c2ccc(NC(=O)c3ccccc3C)cc2)c1 [Compound 59, N-(2′,5′-dimethoxy-biphenyl-4-yl)-2-methylbenzamide]

same assay, conditions: Homo sapiens, PHA, bin 500 nM-1 μM

Row | pIC50 | Compound
32 | 6.00 to 6.30 | Cc1cc(C(=O)Nc2ccc(-c3cc(C(F)(F)F)ccc3C(F)(F)F)cc2)no1 [Compound 39, 5-Methyl-isoxazol-3-carboxylic acid (2′,5′-bis-trifluoromethyl-biphenyl-4-yl)-amide]
33 | 6.00 to 6.30 | O=C(Nc1ccc(-c2ccccc2C(F)(F)F)c(C(F)(F)F)c1)c1cccc(F)c1F [Compound 4, N-(2,2′-Bis-trifluoromethyl-biphenyl-4-yl)-2,3-difluoro-benzamide]
34 | 6.00 to 6.30 | CCN(CC)C(=O)Nc1ccc(-c2cc(C(F)(F)F)ccc2C(F)(F)F)cc1 [Compound 131, N′,N′-diethyl-N-(2′,5′-bis-trifluoromethylbiphenyl-4-yl) urea]

same assay, conditions: Homo sapiens, PHA, bin >1 μM

Row | pIC50 | Compound
35 | < 6.00 | O=C(Nc1ccc(-c2ccccc2C(F)(F)F)cc1)c1cnccn1 [Compound 26, Pyrazine-2-carboxylic acid (2′-trifluoromethyl-biphenyl-4-yl)-amide]
36 | < 6.00 | CN(C)C(=O)c1ccccc1-c1ccc(NC(=O)c2cccc(F)c2F)cc1 [Compound 6, 4′-(2,3-Difluoro-benzoylamino)-biphenyl-2-carboxylic acid dimethylamide]
37 | < 6.00 | O=C(Nc1ccc(-c2ccccc2C(F)(F)F)cc1)c1ccccn1 [Compound 25, Pyridine-2-carboxylic acid (2′-trifluoromethyl-biphenyl-4-yl)-amide]
38 | < 6.00 | O=C(Nc1ccc(-c2ccccc2C(F)(F)F)cc1)c1ccc(F)cc1 [Compound 10, 4-Fluoro-N-(2′-trifluoromethyl-biphenyl-4-yl)-benzamide]
